Legend:
[1] = tested on: TNBCs and their metastases; experiment: Stopping the growth of TNBCs and their metastases; details: statement in words, no data shown
[2] = Ability to cross the blood-brain-barrier; details: statement in words, no data shown

COc1ccc(C(CCCCNC(=O)Nc2ccc(Cl)c([N+](=O)[O-])c2)c2ccc(OC)cc2)cc1 [1-(5,5-bis(4-methoxyphenyl)pentyl)-3-(4-chloro-3-nitrophenyl)urea]
stopping the growth of TNBCs and their metastases [1]: effective in stopping the growth of TNBCs and their metastases | ability to cross the blood-brain-barrier (BBB) [2]: shows the ability to cross the blood-brain-barrier

From patent publication US12338204B2, “Substituted bisphenylalkylurea compounds and methods of treating breast cancer” (Texas Tech University System, priority 2018, dated 2025)
